Laboratory results: patent publication US12396985B2, “Composition for oral administration with controlled release properties comprising complex of clay minerals, method for preparing same, and method for controlling release properties” (Korea Institute of Geoscience and Mineral Resources, priority 2019, dated 2025)
Values after ≈ are worked out from the molar mass of the structure shown.

Assays:
[1] = adsorption rate of vactosertib onto bentonite; assay type: physicochemical
Procedure: The adsorption rates of vactosertib and bentonite according to the pH of a solvent were evaluated. At this time, considering that the vactosertib was not dissolved in neutral, but stated to be dissolved in about 1 mg/mL from pH 3, a test was performed by setting a reaction pH to pH 1, pH 2, and pH 3. First, 10 mg/mL of the vactosertib was dissolved in a 0.1 N hydrochloric acid aqueous solution and diluted with a hydrochloric acid aqueous solution or a phosphate buffer solution (pH 1: 0.1 N hydrochloric acid aqueous solution, pH 2, pH 3: phosphate buffer solution) corresponding to each pH to adjust the concentration to 1 mg/mL. 1 mL of a corresponding drug solution, 8 mL of a reaction solution (that is, 0.1 N hydrochloric acid aqueous solution or phosphate buffer solution) corresponding to each pH, and 1 mL of a 5 mg/mL suspension in which bentonite was suspended in distilled water were mixed and left for 30 minutes to adsorb the drug onto the bentonite. Thereafter, a drug concentration of a supernatant obtained by centrifugation (3,000 rpm, 5 minutes) was analyzed. Through this, the drug amount adsorbed onto the bentonite was indirectly calculated as shown in Equation 1 by removing the remaining drug amount in the supernatant from the entirely applied drug (vactosertib) to calculate an adsorption rate. [formula] [formula] To this end, a sample was prepared in the same manner as in Test Example 1, and a complex was prepared by fixing a reaction concentration and a reaction pH of bentonite to 0.5 mg/mL and pH 1, respectively, and varying the concentration of the applied vactosertib from 0.01 mg/mL to 0.5 mg/mL. In addition, a difference in adsorption rate according to the concentration of vactosertib was measured. To this end, a sample was prepared in the same manner as in Test Example 1, and a complex was prepared by using a solvent of pH 1, setting a concentration ratio of vactosertib and bentonite to 1:5, and varying an absolute concentration (that is, actual concentration). In addition, a difference in adsorption rate according to an absolute concentration was measured.

[2] = aqueous solubility of the compound of Chemical Formula 1; assay type: physicochemical
[3] = partition coefficient (octanol/water); assay type: physicochemical
[4] = tested on: ulcerative colitis mouse model induced with DSS; experiment: histopathological severity scores in ulcerative colitis mouse model induced with DSS; assay type: in vivo, C57BL/6 mice
Procedure: Animal tests were performed to confirm anti-inflammatory, anti-crypt cell damage, anti-ulcer, anti-edema, and anti-fibrosis effects of a vactosertib/bentonite complex using a mouse model of ulcerative colitis as one of inflammatory bowel diseases. C57BL/6 mice were selected as test animals, and in order to induce ulcerative colitis, a cycle in which an inflammation inducing substance, DSS was added in drinking water and supplied for 7 days, and then normal drinking water was supplied for 14 days was repeated. Such an inflammation inducing cycle was repeated 3 times to induce chronic inflammation, ulcer and fibrous conditions in the large intestine. To test animal groups except for control groups, from 3 weeks after a first inflammation inducing cycle was elapsed, bentonite, vactosertib, or a vactosertib/bentonite complex was administered twice a day (10 am, 4 pm), 5 days a week, and for total 6 weeks. The bentonite per 1 kg of converted mouse weight was administered with 106.8 mg, the vactosertib was administered with 20.0 mg, and the complex was administered with 126.8 mg. At this time, as the vactosertib/bentonite complex, the complex prepared in Test Example 5 was used. For each test group used in ulcerative colitis animal tests, inflammation inducing substances, test substances, doses of the test substances, and the number of test animals were shown in Table 7 below.
C57BL/6 mice used in the test were supplied from the Orient Bio Gapyeong Center (699-13, Mokdong-ri, Buk-yeon, Gapyeong-gun, Gyeonggi-do), and about 6-week-old during obtaining. For about 7 days after obtaining, the rats were quarantined and purified and then healthy animals were used for the test. When the induced material was administered, the test animals were about 8-week-old, and 52 mice were used. The test animals were bred in the 2nd floor of Clean Animal Room, Bioscience Research Institute, Research Institute of Medical Science at Inha University, and circulated in at least 10 times/hour and bred under conditions of a temperature of 22±4° C., relative humidity of 50±20%, and illuminance of 150 to 300 Lux of lighting on for 12 hours (lighting: 08:00 to 20:00). A radiation solid feed (FeedLab GMO Free Rodent Diet GF2005) for rodents was free-taken using a feeder and water sterilized by an ultraviolet-ray flowing water sterilizer and high-pressure vapor after reverse osmosis was free-taken using a polysulfonate-made drinking water bottle (300 ml).
In order to induce ulcerative colitis, 2% DSS was added in drinking water of mice and continuously supplied for first 7 days of every test cycle (3 weeks). The test substances were orally administered 2 times a day, 5 days a week, and for a total of 6 weeks at the same time of second DSS induction (FIG. 14). The test substance dose was administered in a liquid amount of 20 mL per kg by body weight converted for each individual based on the body weight. The administration was orally performed by putting a test substance in a syringe and injecting the test substance by connecting a feeding needle for rats.
In order to evaluate a treatment effect of test substances on ulcerative colitis, after the end of the test, the animal was anesthetized, opened, and bled and then a histopathological test was performed for each individual. Histopathological findings were subdivided and scored into severity changes of inflammation, crypt cell damage, ulcer, edema, and fibrosis as shown in Table 8 below. In addition, the four histopathological severity scores excluding fibrosis were summed to compare a positive control (G2) and test substance-administered groups (G3, G4, and […]).
Statistical analysis was performed using Graphpad Prism version 8.01, and a minimum unit of significance was set to p<0.05. Since all measured histopathological indexes were nonparametric data, the indexes were represented by a median, 25% to 75% values (in the box), and minimum-maximum values (both ends) in the graph (FIGS. 15 to 20). […]

interleukin 6 (IL-6) = experiment: immunohistochemical IL-6 staining of large intestine, DSS ulcerative colitis mouse model; assay type: in vivo, C57BL/6 mice; conditions: DSS 2% mice, same dosing
Procedure: Animal tests were performed to confirm anti-inflammatory, anti-crypt cell damage, anti-ulcer, anti-edema, and anti-fibrosis effects of a vactosertib/bentonite complex using a mouse model of ulcerative colitis as one of inflammatory bowel diseases. C57BL/6 mice were selected as test animals, and in order to induce ulcerative colitis, a cycle in which an inflammation inducing substance, DSS was added in drinking water and supplied for 7 days, and then normal drinking water was supplied for 14 days was repeated. Such an inflammation inducing cycle was repeated 3 times to induce chronic inflammation, ulcer and fibrous conditions in the large intestine. […]
In order to observe an immunohistochemical change of a large intestine tissue, a tissue fixed to a 10% neutral buffer formalin solution was sliced, attached to a coating slide, and deparaffinized, and then stained, and IHC of reacting with antibodies IL-6 (Interleukin-6), α-SMA (α-smooth muscle actin), and TGF-β (transforming growth factor beta) on each slide was requested to an external institute (Notus) and the test was performed. In an individual-specific tissue slide, three constant zones were specified and imaged 100 times, a stained portion to the total area was measured, and a mean value was calculated (Zen 2.3 blue edition, Carl Zeiss, Germany). […]

[5] = DSS 2% mice, oral twice a day, 5 days a week, 6 weeks, bentonite 106.8, vactosertib 20.0, complex 126.8 mg/kg, 3 point scale

Q: For `Cc1cccc(-c2[nH]c(CNc3ccccc3F)nc2-c2ccc3ncnn3c2)n1` [Vactosertib, N-((4-([1,2,4]triazolo[1,5-a]pyridine-6-yl)-5-(6-methylpyridin-2-yl)-1H-imidazol-2-yl)methyl)-2-fluoroaniline], which Adsorption rate ([1]; vactosertib 0.01 mg/mL, bentonite 0.5 mg/mL, pH 1) is on record?
A: Its Adsorption rate is 99.4 ± 0.1%.

Q: What about the Adsorption rate ([1]; vactosertib 0.025 mg/mL, bentonite 0.5 mg/mL, pH 1) of the same compound?
A: Its Adsorption rate is 99.8 ± 0.0%.

Q: And the Adsorption rate ([1]; vactosertib 0.05 mg/mL, bentonite 0.5 mg/mL, pH 1)?
A: Its Adsorption rate is 99.8 ± 0.1%.

Q: And the Adsorption rate ([1]; vactosertib 0.1 mg/mL, bentonite 0.5 mg/mL, pH 1)?
A: The Adsorption rate was 80.7 ± 1.0%.

Q: What about the Adsorption rate ([1]; vactosertib 0.1 mg/mL, bentonite 0.5 mg/mL, pH 2) of the same compound?
A: The Adsorption rate was 79.3 ± 1.0%.

Q: What about the Adsorption rate ([1]; vactosertib 0.1 mg/mL, bentonite 0.5 mg/mL, pH 3) of the same compound?
A: Its Adsorption rate is 79.0 ± 0.8%.

Q: And the Adsorption rate ([1]; vactosertib 0.15 mg/mL, bentonite 0.5 mg/mL, pH 1)?
A: Its Adsorption rate is 57.1 ± 1.5%.

Q: What about the Adsorption rate ([1]; vactosertib 0.2 mg/mL, bentonite 0.5 mg/mL, pH 1) of the same compound?
A: Its Adsorption rate is 43.8 ± 0.5%.

Q: What about the Adsorption rate ([1]; vactosertib 0.3 mg/mL, bentonite 0.5 mg/mL, pH 1) of the same compound?
A: The Adsorption rate was 31.2 ± 1.2%.

Q: And the Adsorption rate ([1]; vactosertib 0.4 mg/mL, bentonite 0.5 mg/mL, pH 1)?
A: The Adsorption rate was 23.0 ± 0.8%.

Q: And the Adsorption rate ([1]; vactosertib 0.5 mg/mL, bentonite 0.5 mg/mL, pH 1)?
A: The Adsorption rate was 19.0 ± 0.9%.

Q: What about the Adsorption rate ([1]; vactosertib 1 mg/mL, bentonite 5 mg/mL, pH 1) of the same compound?
A: The Adsorption rate was 90.4 ± 0.2%.

Q: And the solubility ([2]; 25 °C, water, thermodynamic from solid, saturated aqueous solution at 25±3° C., pH 7.2)?
A: The solubility was less than 20 µg/mL.

Q: And the “pH of a saturated aqueous solution” value ([2]; 25±3° C.)?
A: Its value is 7.2.

Q: What about the solubility ([2]; aqueous solution, aqueous buffer, at pH 2.81) of the same compound?
A: The solubility was 25000 µg/mL (≈ 62700 µM).

Q: And the solubility ([2]; aqueous solution, aqueous buffer, at pH 3)?
A: Its solubility is roughly 1000 µg/mL (≈ 2500 µM).

Q: What about the solubility ([2]; aqueous solution, aqueous buffer, in pH 4.9 or higher) of the same compound?
A: The solubility was no more than 20 µg/mL.

Q: And the “partition coefficient (octanol/water) Log Do/w” value [3]?
A: Its value is 3.31.

Q: What about the “Edema score (mean)” value ([4]; DSS 2% mice, oral twice a day, 5 days a week, 6 weeks, bentonite 106.8, vactosertib 20.0, complex 126.8 mg/kg, 1 point scale) of the same compound?
A: Its value is 0.3.

Q: And the “Fibrosis score (mean)” value [4, 5]?
A: The value was 1.5.

Q: And the “Ulcer score (mean)” value [4, 5]?
A: Its value is 0.9.

Q: And the “Crypt cell damage score (mean)” value ([4]; DSS 2% mice, oral twice a day, 5 days a week, 6 weeks, bentonite 106.8, vactosertib 20.0, complex 126.8 mg/kg, 4 point scale)?
A: Its value is 2.

Q: What about the “Inflammation score (mean)” value ([4]; DSS 2% mice, oral twice a day, 5 days a week, 6 weeks, bentonite 106.8, vactosertib 20.0, complex 126.8 mg/kg, 5 point scale) of the same compound?
A: Its value is 3.6.

Q: What about the “median of inflammation index compared with the positive control group (G2)” value ([4]; FIG. 15, Dunn's test) of the same compound?
A: The value was “slightly low in a median of an inflammation index”.

Q: What about the “median of crypt cell damage index compared with the positive control group (G2)” value ([4]; FIG. 16, Dunn's test) of the same compound?
A: Its value is “low in a median of a crypt cell damage index, but had no statistical significance”.

Q: And the “median of ulcer index compared with the positive control group (G2)” value ([4]; FIG. 17, Dunn's test)?
A: Its value is “low in a median of an ulcer index, but had no statistical significance”.

Q: And the “median of fibrosis index compared with the positive control group (G2)” value ([4]; FIG. 19, Dunn's test)?
A: Its value is “slightly low in a median of a fibrosis index”.

Q: And the “median of summed severity scores (inflammation, crypt cell damage, ulcer, edema) compared with the positive control group (G2)” value ([4]; FIG. 20, Dunn's test)?
A: The value was “low in a median of an ulcer index, but had no statistical significance”.

Q: And the “Histopathologic total score (mean)” value ([4]; sum of inflammation, crypt cell damage, ulcer, edema (fibrosis excluded), same dosing)?
A: Its value is 6.8.

Q: And the “reduction of IL-6 staining area compared with G2 group” value (interleukin 6 (IL-6))?
A: The value was 23.0%.

Q: What about the “IL-6 (Area %)” value (interleukin 6 (IL-6); mean and standard error) of the same compound?
A: The value was 9.7 ± 2.9 Area %.
